#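 Step 1: Grow cells in 96-well plates. Step 2: Expose to compound for 48 hours at 5 concentrations. Step 3: Interpolate endpoints linearly; if unreached, use highest concentration. At the GI50, growth is halved.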 Active and inactive are the calls of the source. Cut-off read from the data, not from the text of the source: active = GI50 up to about 1.1 µM and inactive = higher.
# How the values were obtained:
# Test in all cases: DTP human tumour cell line panel, 48 h
# 786-0 = tested on: 786-0
# HCT-15 = tested on: HCT-15
# NCI/ADR-RES = tested on: NCI/ADR-RES
# NCI-H23 = tested on: NCI-H23
# RPMI-8226 = tested on: RPMI-8226
# OVCAR-4 = tested on: OVCAR-4
# SN12C = tested on: SN12C
# SK-MEL-28 = tested on: SK-MEL-28
# OVCAR-8 = tested on: OVCAR-8
# SK-OV-3 = tested on: SK-OV-3
# MDA-MB-435 = tested on: MDA-MB-435
# SF-295 = tested on: SF-295
# NCI-H460 = tested on: NCI-H460
# IGROV-1 = tested on: IGROV-1
# HOP-92 = tested on: HOP-92
# SNB-19 = tested on: SNB-19
# A549 = tested on: A549
# MOLT-4 = tested on: MOLT-4
# COLO 205 = tested on: COLO 205
# T47D = tested on: T47D
# OVCAR-5 = tested on: OVCAR-5
# UO-31 = tested on: UO-31
# HT-29 = tested on: HT-29
# UACC-62 = tested on: UACC-62
# SF-539 = tested on: SF-539
# SNB-75 = tested on: SNB-75
# OVCAR-3 = tested on: OVCAR-3
# UACC-257 = tested on: UACC-257
# PC-3 = tested on: PC-3
# EKVX = tested on: EKVX
# HCT-116 = tested on: HCT-116
# BT-549 = tested on: BT-549
# TK-10 = tested on: TK-10
# Hs-578T = tested on: Hs-578T
# SK-MEL-2 = tested on: SK-MEL-2
# ACHN = tested on: ACHN
# MCF7 = tested on: MCF7
# DU-145 = tested on: DU-145
# M14 = tested on: M14
# K562 = tested on: K562
# SR = tested on: SR
# SK-MEL-5 = tested on: SK-MEL-5
# A498 = tested on: A498
# MDA-N = tested on: MDA-N
# SW-620 = tested on: SW-620
# U-251 = tested on: U-251
# Malme-3M = tested on: Malme-3M
# HL-60 = tested on: HL-60
# CCRF-CEM = tested on: CCRF-CEM
# NCI-H522 = tested on: NCI-H522
# KM12 = tested on: KM12
# MDA-MB-231 = tested on: MDA-MB-231
# SF-268 = tested on: SF-268
# RXF 393 = tested on: RXF 393
# CAKI-1 = tested on: CAKI-1
# LOX IMVI = tested on: LOX IMVI
# HOP-62 = tested on: HOP-62
# HCC 2998 = tested on: HCC 2998
# NCI-H226 = tested on: NCI-H226
smiles,measurement,setting,value
Cc1nccn1S(=O)(=O)c1ccc(Br)cc1Br,GI50,786-0,45.7 µM (inactive)
same,GI50,HCT-15,28.4 µM
same,GI50,NCI/ADR-RES,28.5 µM (inactive)
same,GI50,NCI-H23,36.1 µM (inactive)
same,GI50,RPMI-8226,19.5 µM (inactive)
same,GI50,OVCAR-4,29.5 µM (inactive)
same,GI50,SN12C,29.7 µM (inactive)
same,GI50,SK-MEL-28,48.9 µM (inactive)
same,GI50,OVCAR-8,44.4 µM (inactive)
same,GI50,SK-OV-3,41.8 µM (inactive)
same,GI50,MDA-MB-435,19.5 µM (inactive)
same,GI50,SF-295,27.7 µM (inactive)
same,GI50,NCI-H460,38.4 µM (inactive)
same,GI50,IGROV-1,41.8 µM (inactive)
same,GI50,HOP-92,26.7 µM (inactive)
same,GI50,SNB-19,25.9 µM (inactive)
same,GI50,A549,25.9 µM (inactive)
same,GI50,MOLT-4,29 µM (inactive)
same,GI50,COLO 205,18.6 µM (inactive)
same,GI50,T47D,22.6 µM (inactive)
same,GI50,OVCAR-5,35.1 µM (inactive)
same,GI50,UO-31,22.3 µM (inactive)
same,GI50,HT-29,29.1 µM (inactive)
same,GI50,UACC-62,33.6 µM (inactive)
same,GI50,SF-539,22.6 µM (inactive)
same,GI50,SNB-75,12.5 µM (inactive)
same,GI50,OVCAR-3,22.7 µM (inactive)
same,GI50,UACC-257,34.9 µM (inactive)
same,GI50,PC-3,33 µM (inactive)
same,GI50,EKVX,26.9 µM (inactive)
same,GI50,HCT-116,31.6 µM (inactive)
same,GI50,BT-549,56.2 µM (inactive)
same,GI50,TK-10,38.6 µM (inactive)
same,GI50,Hs-578T,41.1 µM (inactive)
same,GI50,SK-MEL-2,22.1 µM (inactive)
same,GI50,ACHN,54.1 µM (inactive)
same,GI50,MCF7,37.5 µM (inactive)
same,GI50,DU-145,42.9 µM (inactive)
same,GI50,M14,16.9 µM (inactive)
same,GI50,K562,29.1 µM (inactive)
same,GI50,SR,24.7 µM (inactive)
same,GI50,SK-MEL-5,19.9 µM (inactive)
same,GI50,A498,35.9 µM (inactive)
same,GI50,MDA-N,20.7 µM (inactive)
same,GI50,SW-620,28.5 µM (inactive)
same,GI50,U-251,44.7 µM (inactive)
same,GI50,Malme-3M,50.8 µM (inactive)
same,GI50,HL-60,19.1 µM (inactive)
same,GI50,CCRF-CEM,26.5 µM (inactive)
same,GI50,NCI-H522,25.7 µM (inactive)
same,GI50,KM12,27.7 µM (inactive)
same,GI50,MDA-MB-231,19.1 µM (inactive)
same,GI50,SF-268,37.2 µM (inactive)
same,GI50,RXF 393,23 µM (inactive)
same,GI50,CAKI-1,30 µM (inactive)
same,GI50,LOX IMVI,40.9 µM (inactive)
CN(CC(=O)O)c1ccc(/C=C/c2ccnc3ccccc23)cc1,GI50,786-0,28.1 µM (inactive)
same,GI50,HCT-15,31.9 µM
same,GI50,NCI/ADR-RES,29.2 µM (inactive)
same,GI50,NCI-H23,33.3 µM (inactive)
same,GI50,RPMI-8226,13.3 µM (inactive)
same,GI50,SN12C,25.5 µM (inactive)
same,GI50,SK-MEL-28,40 µM (inactive)
same,GI50,OVCAR-8,27.7 µM (inactive)
same,GI50,SK-OV-3,28.9 µM (inactive)
same,GI50,MDA-MB-435,14.1 µM (inactive)
same,GI50,SF-295,18.1 µM (inactive)
same,GI50,NCI-H460,21.4 µM (inactive)
same,GI50,IGROV-1,13.9 µM (inactive)
same,GI50,HOP-92,22.9 µM (inactive)
same,GI50,SNB-19,30.1 µM (inactive)
same,GI50,A549,17.5 µM (inactive)
same,GI50,COLO 205,16 µM (inactive)
same,GI50,T47D,20.2 µM (inactive)
same,GI50,OVCAR-5,29.2 µM (inactive)
same,GI50,UO-31,15.7 µM (inactive)
same,GI50,HT-29,23 µM (inactive)
same,GI50,UACC-62,19.6 µM (inactive)
same,GI50,SF-539,27.9 µM (inactive)
same,GI50,SNB-75,24.8 µM (inactive)
same,GI50,OVCAR-3,27.9 µM (inactive)
same,GI50,UACC-257,25.4 µM (inactive)
same,GI50,PC-3,27.4 µM (inactive)
same,GI50,EKVX,4.47 µM (inactive)
same,GI50,HCT-116,23.8 µM (inactive)
same,GI50,BT-549,16.3 µM (inactive)
same,GI50,TK-10,19.7 µM (inactive)
same,GI50,Hs-578T,25.4 µM (inactive)
same,GI50,SK-MEL-2,18.8 µM (inactive)
same,GI50,HOP-62,31.3 µM (inactive)
same,GI50,ACHN,34.4 µM (inactive)
same,GI50,MCF7,5.02 µM (inactive)
same,GI50,DU-145,33.6 µM (inactive)
same,GI50,M14,22.2 µM (inactive)
same,GI50,K562,23.7 µM (inactive)
same,GI50,SR,6.93 µM (inactive)
same,GI50,SK-MEL-5,16 µM (inactive)
same,GI50,A498,17.1 µM (inactive)
same,GI50,MDA-N,12.5 µM (inactive)
same,GI50,SW-620,29.4 µM (inactive)
same,GI50,U-251,22.8 µM (inactive)
same,GI50,HL-60,11.4 µM (inactive)
same,GI50,HCC 2998,25.4 µM (inactive)
same,GI50,CCRF-CEM,13.8 µM (inactive)
same,GI50,NCI-H522,5.47 µM (inactive)
same,GI50,KM12,13.2 µM (inactive)
same,GI50,MDA-MB-231,27 µM (inactive)
same,GI50,SF-268,19.1 µM (inactive)
same,GI50,RXF 393,14.8 µM (inactive)
same,GI50,CAKI-1,18.5 µM (inactive)
same,GI50,LOX IMVI,22.3 µM (inactive)
O=C1N2CCc3c([nH]c4ccccc34)C23CC2CCCC12S3 (stereo unspecified),GI50,786-0,33.7 µM (inactive)
same,GI50,HCT-15,18.1 µM
same,GI50,NCI/ADR-RES,10.7 µM (inactive)
same,GI50,NCI-H23,20.1 µM (inactive)
same,GI50,RPMI-8226,27.4 µM (inactive)
same,GI50,OVCAR-4,41 µM (inactive)
same,GI50,SN12C,20.6 µM (inactive)
same,GI50,SK-MEL-28,45.3 µM (inactive)
same,GI50,OVCAR-8,28.8 µM (inactive)
same,GI50,SK-OV-3,> 50 µM (inactive)
same,GI50,MDA-MB-435,33.7 µM (inactive)
same,GI50,SF-295,20.3 µM (inactive)
same,GI50,IGROV-1,24.8 µM (inactive)
same,GI50,HOP-92,29 µM (inactive)
same,GI50,SNB-19,> 50 µM (inactive)
same,GI50,A549,17.7 µM (inactive)
same,GI50,MOLT-4,25.8 µM (inactive)
same,GI50,COLO 205,26.7 µM (inactive)
same,GI50,T47D,20.5 µM (inactive)
same,GI50,OVCAR-5,> 50 µM (inactive)
same,GI50,UO-31,32 µM (inactive)
same,GI50,HT-29,18.4 µM (inactive)
same,GI50,UACC-62,36.7 µM (inactive)
same,GI50,NCI-H226,> 50 µM (inactive)
same,GI50,SF-539,> 50 µM (inactive)
same,GI50,OVCAR-3,39.4 µM (inactive)
same,GI50,UACC-257,18.2 µM (inactive)
same,GI50,PC-3,24.7 µM (inactive)
same,GI50,EKVX,47.2 µM (inactive)
same,GI50,HCT-116,20.6 µM (inactive)
same,GI50,BT-549,21.7 µM (inactive)
same,GI50,TK-10,> 50 µM (inactive)
same,GI50,Hs-578T,22 µM (inactive)
same,GI50,SK-MEL-2,> 50 µM (inactive)
same,GI50,HOP-62,> 50 µM (inactive)
same,GI50,ACHN,37.3 µM (inactive)
same,GI50,MCF7,18.7 µM (inactive)
same,GI50,DU-145,39.4 µM (inactive)
same,GI50,M14,> 50 µM (inactive)
same,GI50,K562,> 50 µM (inactive)
same,GI50,SR,28.9 µM (inactive)
same,GI50,SK-MEL-5,20.3 µM (inactive)
same,GI50,A498,33 µM (inactive)
same,GI50,MDA-N,27.9 µM (inactive)
same,GI50,SW-620,> 50 µM (inactive)
same,GI50,U-251,> 50 µM (inactive)
same,GI50,Malme-3M,27.6 µM (inactive)
same,GI50,HL-60,> 50 µM (inactive)
same,GI50,NCI-H522,> 50 µM (inactive)
same,GI50,KM12,25.4 µM (inactive)
same,GI50,MDA-MB-231,> 50 µM (inactive)
same,GI50,SF-268,36.1 µM (inactive)
same,GI50,RXF 393,> 50 µM (inactive)
same,GI50,CAKI-1,> 50 µM (inactive)
same,GI50,LOX IMVI,34.2 µM (inactive)

# From ChEMBL document CHEMBL1201862, “PubChem BioAssay data set” (2004)
